# Assay results reported in ChEMBL document CHEMBL3044917, “Multicomponent one-pot synthesis of 2-naphthol derivatives and evaluation of their anticancer activity” (Med Chem Res, 2012).
# Key:
# Type in all cases: functional, cell-based
# HeLa = experiment: Cytotoxicity against Homo sapiens (human) HeLa cells after 48 hr by MTT assay
# A549 = experiment: Cytotoxicity against Homo sapiens (human) A549 cells after 48 hr by MTT assay; conditions: A549, 48 h
# HepG2 = experiment: Cytotoxicity against Homo sapiens (human) HepG2 cells after 48 hr by MTT assay; conditions: HepG2, 48 h
# [1] = Cytotoxicity against Homo sapiens (human) MDA231 cells after 48 hr by MTT assay; conditions: MDA-MB-231, 48 h
SMILES,IC50 (HeLa),IC50 (A549),IC50 (HepG2),IC50 [1]
C=CCC(c1ccccc1)c1c(O)ccc2ccccc12 (stereo unspecified),76 µM,59 µM,53 µM,33 µM
C=CCC(c1ccc(C)cc1)c1c(O)ccc2ccccc12 (stereo unspecified),6.2 µM,6.8 µM,5.6 µM,6 µM
C=CCC(c1ccc(C(C)C)cc1)c1c(O)ccc2ccccc12 (stereo unspecified),12.5 µM,13.5 µM,15 µM,16.5 µM
C=CCC(c1ccc(F)cc1)c1c(O)ccc2ccccc12 (stereo unspecified),< 1 µM,1.6 µM,1.2 µM,< 1 µM
C=CCC(c1ccccc1F)c1c(O)ccc2ccccc12 (stereo unspecified),6.8 µM,7.8 µM,9.7 µM,6.6 µM
C=CCC(c1cccc(F)c1)c1c(O)ccc2ccccc12 (stereo unspecified),8.8 µM,8.6 µM,6.5 µM,9.1 µM
C=CCC(c1ccc(Cl)cc1)c1c(O)ccc2ccccc12 (stereo unspecified),6.4 µM,9.6 µM,7.4 µM,7.6 µM
COc1cccc2c1C(=O)c1c(O)c3c(c(O)c1C2=O)C[C@@](O)(C(=O)CO)C[C@@H]3O[C@H]1C[C@H](N)[C@H](O)[C@H](C)O1 [DOXORUBICIN],< 1 µM,< 1 µM,–,< 1 µM
